From patent US20140005163A1 (NOVARTIS AG, priority 2010, published 2014) come the findings set out here.

One may read the IC50 as the midpoint of a concentration-inhibition curve.

Assay [1] deals with T1, PI3K alpha (Homo sapiens, UniProt P42336).
T1 construct: p85(iSH2) fusion partner (see partner chain) (N); His tag (C); made in house; host or cells: baculovirus; Tn5 (Trichoplusia ni) or TiniPro insect cells
Put plainly: PI3K alpha kinase assay (Kinase-Glo luminescence). The class given is biochemical. In a few lines:
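Enzyme 10 nM PI3Kα EMV B1075; ATP 1 μM; PI 10 μg/mL; Tris-HCl pH 7.5 10 mM, MgCl2 3 mM, NaCl 50 mM, CHAPS 0.05%, DTT 1 mM; 60 min RT; Kinase-Glo luminescence; 4-parameter IC50 fit, 8 concentrations, single points.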
A general note: Kinase-Glo reads ATP consumption through a luciferase reaction.

Assay [2] deals with T2, PI3K gamma (Homo sapiens, UniProt P48736).
T2 construct: His tag (C); made in house; host or cells: baculovirus (pVL1393); Tn5 or TiniPro insect cells; construct from Roger Williams lab, MRC LMB
T2 sequence (P48736 144-1102 limits assumed): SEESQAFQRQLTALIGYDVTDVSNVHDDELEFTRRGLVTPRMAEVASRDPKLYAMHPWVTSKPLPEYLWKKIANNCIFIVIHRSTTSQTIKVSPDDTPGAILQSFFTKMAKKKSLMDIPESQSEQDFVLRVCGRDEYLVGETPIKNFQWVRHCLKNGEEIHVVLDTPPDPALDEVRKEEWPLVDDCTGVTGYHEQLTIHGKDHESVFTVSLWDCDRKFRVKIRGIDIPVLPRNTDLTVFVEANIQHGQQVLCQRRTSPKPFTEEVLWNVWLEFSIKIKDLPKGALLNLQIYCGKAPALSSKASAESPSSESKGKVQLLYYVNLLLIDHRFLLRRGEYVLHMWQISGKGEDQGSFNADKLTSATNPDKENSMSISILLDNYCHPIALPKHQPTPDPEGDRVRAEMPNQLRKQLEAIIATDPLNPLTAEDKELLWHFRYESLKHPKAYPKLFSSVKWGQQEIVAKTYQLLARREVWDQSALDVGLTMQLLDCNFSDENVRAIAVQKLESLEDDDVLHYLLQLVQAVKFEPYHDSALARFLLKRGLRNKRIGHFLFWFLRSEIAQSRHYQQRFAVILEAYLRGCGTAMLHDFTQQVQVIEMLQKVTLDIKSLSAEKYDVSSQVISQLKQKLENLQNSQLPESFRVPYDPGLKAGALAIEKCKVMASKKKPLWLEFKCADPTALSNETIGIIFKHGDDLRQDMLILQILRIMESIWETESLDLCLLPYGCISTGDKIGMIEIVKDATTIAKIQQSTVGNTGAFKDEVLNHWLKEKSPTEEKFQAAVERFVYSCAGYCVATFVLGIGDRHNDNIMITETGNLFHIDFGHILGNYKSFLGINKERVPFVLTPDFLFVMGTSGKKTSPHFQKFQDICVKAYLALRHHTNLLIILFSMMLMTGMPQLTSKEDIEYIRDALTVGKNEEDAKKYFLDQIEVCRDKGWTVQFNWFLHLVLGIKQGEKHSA
Put plainly: PI3K gamma kinase assay (Kinase-Glo luminescence). The class given is biochemical. The method, then:
In a more preferred assay, the kinase reaction is performed in a final volume of 10 μL per well of a low volume non binding CORNING, 384 well black plate (Cat. No. #3676). The final concentrations of ATP and phosphatidyl inositol (PI) in the assay are 1 μM and 10 μg/mL respectively. The reaction is started by the addition of ATP.
The components of the assay are added per well as follows:
[…] in 90% DMSO per well, in columns 1-20, 8 concentrations (1/3 and 1/3.33 serial dilution step) in single. • Low control: […] of 90% DMSO in half the wells of columns 23-24 (0.45% in final). • High control: […] of reference compound (e.g. compound of Example 7 in WO 2006/122806) in the other half of columns 23-24 (2.5 μM in final). • Standard: […] of reference compound as just mentioned diluted as the test compounds in columns 21-22 • 20 mL ‘buffer’ are prepared per assay: • 200 μL of 1M TRIS HCl pH7.5 (10 mM in final) • 60 μL of 1M MgCl2 (3 mM in final) • 500 μL of 2M NaCl (50 mM in final) • 100 μL of 10% CHAPS (0.05% in final) • 200 μL of 100 mM DTT (1 mM in final) • 18.94 mL of nanopure water • 10 mL ‘PI’ are prepared per assay: • 200 μL of 1 mg/ml L-alpha-Phosphatidylinositol (Liver Bovine, Avanti Polar Lipids Cat. No. 840042C MW=909.12) prepared in 3% OctylGlucoside (10 μg/ml in final) • 9.8 mL of ‘buffer’ • 10 mL ‘ATP’ are prepared per assay: • 6.7 μL of 3 mM stock of ATP giving a final concentration of 1 μM per well • 10 mL of ‘buffer’ • 2.5 mL of each PI3K construct are prepared per assay in ‘PI’ with the following final concentration: • 10 nM PI3K alfa EMV B1075 • 25 nM beta EMV BV949 • 10 nM delta EMV BV1060 • 150 nM gamma EMV BV950 • 5 μL of ‘PI/PI3K’ are added per well. • 5 μl ‘ATP’ are added per well to start the reaction. • The plates are then incubated at room temperature for 60 minutes (alfa, beta, delta) or 120 minutes (gamma). • The reaction is terminated by the addition of 10 μL Kinase-Glo (Promega Cat. No. #6714). • The assay plates are read after 10 minutes in Synergy 2 reader (BioTek, Vermont USA) with an integration time of 100 milliseconds and sensitivity set to 191. • Output: The High control is around 60'000 counts and the Low control is 30'000 or lower • This luminescence assay gives a useful Z′ ratio between 0.4 and 0.7
IC50 is determined by a four parameter curve fitting routine that comes along with “excel fit”. […] Alternatively, IC50 values are calculated using idbsXLfit model 204, which is a 4 parameter logistic model.

Assay [3] deals with PKB Ser473 phosphorylation in Rat1-myr-HA-p110 delta cells. Put plainly: Reverse protein array assay, PKB Ser473 phosphorylation in Rat1-myr-p110 delta cells. The conditions noted are these: read-out: p-PKB IC50. The assay is classed as cell-based. In a few lines: (§1)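 After at least 20 h of culture, the p110 isoform-transfected Rat1 lines receive compound in an 8-step dilution series, keeping DMSO at 0.2%, for 30 minutes. Cells are then lysed and lysates arrayed on chips for fluorescence detection of Ser473-phosphorylated PKB.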

Assay [4] concerns the target T3, PI3K delta (Homo sapiens, UniProt O00329).
T3 construct: for the full-length p110-d subunit are generated and fused by overlapping PCR; p85(iSH2) fusion partner (see partner chain) (N); His tag (C); made in house; host or cells: baculovirus; Tn5 (Trichoplusia ni) or TiniPro insect cells
Put plainly: PI3K delta kinase assay (Kinase-Glo luminescence). The assay is classed as biochemical. In a few lines:
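Lipid kinase activity of a His-tagged p110δ full-length/p85 iSH2 fusion (10 nM) toward bovine liver phosphatidylinositol (10 μg/mL) at 1 μM ATP, pH 7.5, 60 min, room temperature. ATP consumption is quantified by luciferase-based luminescence. Four-parameter logistic fitting gives IC50.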

The subject of assay [5] is PKB Ser473 phosphorylation in Rat1-myr-HA-p110 alpha cells. Put plainly: Reverse protein array assay, PKB Ser473 phosphorylation in Rat1-myr-p110 alpha cells. The settings on record: 0.5 h, pAkt Ser473, 30 minutes compound incubation, read-out: p-PKB IC50. The class given is cell-based. In a few lines:
as §1

For assay [6], the system named is PKB Ser473 phosphorylation in Rat1-myr-HA-p110 beta cells. Put plainly: Reverse protein array assay, PKB Ser473 phosphorylation in Rat1-myr-p110 beta cells. The assay is classed as cell-based. The conditions noted are these: 0.5 h, pAkt Ser473, 30 minutes incubation, read-out: p-PKB IC50. In a few lines:
as §1

Assay [7] concerns the target T4, PI3K beta (Homo sapiens, UniProt P42338).
T4 construct: for the full-length p110-b subunit are generated and fused by overlapping PCR; p85(iSH2) fusion partner (see partner chain) (N); His tag (C); made in house; host or cells: baculovirus; Tn5 (Trichoplusia ni) or TiniPro insect cells
Put plainly: PI3K beta kinase assay (Kinase-Glo luminescence). The assay is classed as biochemical. The gist of the method:
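Kinase-Glo luminescence after a 60 min room-temperature reaction gives remaining ATP. The reaction holds 25 nM p85(iSH2)-p110β full-length His-tagged construct, 1 μM ATP, 10 μg/mL PI, and eight compound concentrations at 0.45% DMSO final. IC50 values come from a four-parameter logistic fit.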

Assay [8] concerns the target T5, mTOR (Homo sapiens, UniProt P42345).
T5 construct: purchased Invitrogen Corporation (Carlsbad/CA, USA) PV4753
Put plainly: Biochemical assay for m-TOR by TR-FRET. The conditions noted are these: 8 μM ATP, 400 nM GFP-4EBP1, 0.5 nM mTOR. The gist of the method: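 TR-FRET read-out: Tb-labelled anti-p4EBP1 pThr46 antibody (0.5 nM), added in EDTA to stop the reaction, detects phosphorylated GFP-4EBP1 after 15 min. Kinase step used 0.5 nM mTOR, 400 nM substrate, 8 μM ATP, MnCl2-containing HEPES buffer pH 7.5, room temperature.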

Assay [9] concerns S6 Ribosomal Protein phosphorylation Ser235/236 in TSC1 null mouse embryo fibroblast (MEF) cells. In words: Reverse protein array assay, S6 Ribosomal Protein phosphorylation Ser235/236 in TSC1 null MEF cells. The conditions noted are these: 1 h, pS6 ribosomal protein Ser235/236, 60 minutes incubation, read-out: p-S6 IC50. The class given is cell-based. In a few lines: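 TSC1−/− MEFs, seeded and held ≥20 h at 37 °C/5% CO2, were exposed to 8-step serial compound dilutions (0.02% DMSO final; DMSO vehicle control) for 60 min at 37 °C. Cells were then lysed on ice for 10 min and lysates spotted onto reverse protein array chips.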

T3 sequence (O00329 with tags, fused parts or gaps limits assumed): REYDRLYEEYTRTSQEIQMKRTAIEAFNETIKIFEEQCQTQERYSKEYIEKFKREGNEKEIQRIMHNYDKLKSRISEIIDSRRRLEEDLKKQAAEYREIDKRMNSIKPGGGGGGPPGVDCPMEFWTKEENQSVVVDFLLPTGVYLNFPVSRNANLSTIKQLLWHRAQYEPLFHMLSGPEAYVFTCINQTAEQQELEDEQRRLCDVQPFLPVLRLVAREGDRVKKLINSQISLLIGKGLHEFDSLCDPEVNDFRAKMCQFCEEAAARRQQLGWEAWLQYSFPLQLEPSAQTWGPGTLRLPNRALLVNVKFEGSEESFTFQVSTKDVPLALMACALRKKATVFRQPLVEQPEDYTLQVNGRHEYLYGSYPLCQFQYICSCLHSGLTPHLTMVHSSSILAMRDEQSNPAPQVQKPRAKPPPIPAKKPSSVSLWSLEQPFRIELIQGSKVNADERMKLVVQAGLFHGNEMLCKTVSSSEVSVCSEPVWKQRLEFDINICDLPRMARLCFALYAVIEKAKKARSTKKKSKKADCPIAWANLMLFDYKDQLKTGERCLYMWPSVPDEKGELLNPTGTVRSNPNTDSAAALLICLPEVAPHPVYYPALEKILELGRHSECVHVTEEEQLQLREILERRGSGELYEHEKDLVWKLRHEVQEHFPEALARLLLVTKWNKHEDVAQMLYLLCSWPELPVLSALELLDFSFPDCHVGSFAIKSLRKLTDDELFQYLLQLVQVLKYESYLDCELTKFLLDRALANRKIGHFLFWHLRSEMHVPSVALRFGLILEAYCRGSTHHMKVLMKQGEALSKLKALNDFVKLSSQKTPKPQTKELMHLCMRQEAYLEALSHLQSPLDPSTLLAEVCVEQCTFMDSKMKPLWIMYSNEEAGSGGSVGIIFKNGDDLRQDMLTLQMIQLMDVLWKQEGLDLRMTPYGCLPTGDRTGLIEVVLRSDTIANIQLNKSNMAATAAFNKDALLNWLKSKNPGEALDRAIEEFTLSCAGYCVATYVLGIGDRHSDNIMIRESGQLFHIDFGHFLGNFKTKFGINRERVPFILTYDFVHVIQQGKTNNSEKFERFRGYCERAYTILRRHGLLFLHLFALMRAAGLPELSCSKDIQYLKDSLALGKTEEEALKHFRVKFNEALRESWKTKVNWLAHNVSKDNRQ
T5 sequence (P42345 1360-2549 limits assumed): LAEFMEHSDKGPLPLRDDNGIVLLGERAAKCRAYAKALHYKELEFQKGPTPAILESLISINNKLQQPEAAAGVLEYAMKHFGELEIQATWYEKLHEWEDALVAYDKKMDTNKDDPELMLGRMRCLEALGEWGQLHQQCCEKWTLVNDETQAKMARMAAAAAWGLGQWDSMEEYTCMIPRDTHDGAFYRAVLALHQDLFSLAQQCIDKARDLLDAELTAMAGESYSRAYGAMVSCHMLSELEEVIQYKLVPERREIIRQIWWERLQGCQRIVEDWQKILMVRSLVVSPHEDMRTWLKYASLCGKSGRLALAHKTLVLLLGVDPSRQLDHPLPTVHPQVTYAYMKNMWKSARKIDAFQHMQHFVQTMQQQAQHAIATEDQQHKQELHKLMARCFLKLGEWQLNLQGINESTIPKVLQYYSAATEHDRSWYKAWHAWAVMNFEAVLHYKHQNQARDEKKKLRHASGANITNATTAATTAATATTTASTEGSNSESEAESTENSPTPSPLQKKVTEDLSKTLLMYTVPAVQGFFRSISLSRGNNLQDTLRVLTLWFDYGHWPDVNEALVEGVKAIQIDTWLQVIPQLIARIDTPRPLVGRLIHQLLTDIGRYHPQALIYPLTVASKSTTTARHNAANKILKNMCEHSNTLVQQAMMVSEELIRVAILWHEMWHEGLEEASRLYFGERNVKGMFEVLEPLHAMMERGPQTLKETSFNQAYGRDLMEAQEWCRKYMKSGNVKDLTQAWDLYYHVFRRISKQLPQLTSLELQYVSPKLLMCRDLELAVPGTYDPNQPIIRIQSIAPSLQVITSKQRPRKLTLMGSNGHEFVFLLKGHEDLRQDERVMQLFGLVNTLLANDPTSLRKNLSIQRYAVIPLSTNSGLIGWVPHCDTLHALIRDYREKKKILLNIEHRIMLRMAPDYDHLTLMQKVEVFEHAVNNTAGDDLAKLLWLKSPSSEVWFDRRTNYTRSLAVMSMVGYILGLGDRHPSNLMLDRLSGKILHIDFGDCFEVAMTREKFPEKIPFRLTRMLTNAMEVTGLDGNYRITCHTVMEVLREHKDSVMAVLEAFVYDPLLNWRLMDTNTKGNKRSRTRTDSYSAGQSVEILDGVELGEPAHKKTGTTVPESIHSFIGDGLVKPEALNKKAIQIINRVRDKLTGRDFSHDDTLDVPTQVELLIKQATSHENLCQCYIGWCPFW
T4 sequence (P42338 with tags, fused parts or gaps limits assumed): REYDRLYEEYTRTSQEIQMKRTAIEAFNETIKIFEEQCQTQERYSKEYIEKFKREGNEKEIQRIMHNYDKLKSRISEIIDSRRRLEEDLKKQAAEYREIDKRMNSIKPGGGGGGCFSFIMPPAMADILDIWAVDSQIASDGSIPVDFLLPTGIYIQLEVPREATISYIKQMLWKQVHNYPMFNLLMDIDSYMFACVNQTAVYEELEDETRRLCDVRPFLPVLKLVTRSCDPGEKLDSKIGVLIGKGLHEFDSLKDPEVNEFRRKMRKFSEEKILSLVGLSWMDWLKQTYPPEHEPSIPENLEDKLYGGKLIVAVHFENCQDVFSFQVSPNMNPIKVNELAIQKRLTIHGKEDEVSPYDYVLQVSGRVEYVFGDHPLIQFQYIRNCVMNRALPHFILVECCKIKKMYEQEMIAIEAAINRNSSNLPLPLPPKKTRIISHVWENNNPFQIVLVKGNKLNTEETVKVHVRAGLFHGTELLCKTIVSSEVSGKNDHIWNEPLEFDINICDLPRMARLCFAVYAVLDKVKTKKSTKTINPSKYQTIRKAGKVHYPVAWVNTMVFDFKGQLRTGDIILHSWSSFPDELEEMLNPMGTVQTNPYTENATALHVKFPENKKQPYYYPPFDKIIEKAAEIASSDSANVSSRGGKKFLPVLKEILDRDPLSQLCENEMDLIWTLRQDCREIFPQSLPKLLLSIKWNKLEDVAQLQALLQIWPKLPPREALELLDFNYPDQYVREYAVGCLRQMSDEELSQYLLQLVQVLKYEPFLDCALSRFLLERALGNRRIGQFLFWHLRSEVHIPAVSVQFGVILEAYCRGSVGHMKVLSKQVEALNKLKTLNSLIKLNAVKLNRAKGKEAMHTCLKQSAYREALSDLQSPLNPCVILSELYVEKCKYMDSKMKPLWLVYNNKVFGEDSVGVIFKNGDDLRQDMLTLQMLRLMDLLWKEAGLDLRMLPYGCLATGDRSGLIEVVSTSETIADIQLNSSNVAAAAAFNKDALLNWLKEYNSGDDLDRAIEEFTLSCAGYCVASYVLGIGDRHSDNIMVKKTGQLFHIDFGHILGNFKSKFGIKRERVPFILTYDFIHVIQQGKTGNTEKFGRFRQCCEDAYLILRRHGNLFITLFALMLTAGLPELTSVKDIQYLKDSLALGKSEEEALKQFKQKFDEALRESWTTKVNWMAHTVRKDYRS

Regarding `CCn1nccc1-n1c(=O)n(C)c2cnc3ccc(-c4ccc(OC)c(OC)c4)cc3c21` [Example 1.2, 8-(3,4-Dimethoxy-phenyl)-1-(2-ethyl-2H-pyrazol-3-yl)-3-methyl-1,3-dihydro-imidazo[4,5-c]quinolin-2-one], the 50% inhibitory concentration (IC50) amounted to 50 nM in assay [1]; 216 nM in assay [2]; 66 nM in assay [3]; 61 nM in [4]; 33 nM in assay [5]; 21 nM in assay [6]. Moreover, the IC50 stood at 280 nM in assay [7] and 155 nM in assay [8].

As to `COc1ccc(-c2ccc3ncc4c(c3c2)n(-c2cn(C)nc2Cl)c(=O)n4C)cc1OC` [Example 1.10, 1-(3-Chloro-1-methyl-1H-pyrazol-4-yl)-8-(3,4-dimethoxy-phenyl)-3-methyl-1,3-dihydro-imidazo[4,5-c]quinolin-2-one], the IC50 in assay [1] was 9 nM; in assay [2], 238 nM; in [3], 5 nM; in assay [4], 10 nM; in assay [5] it was < 5 nM; in assay [6], < 5 nM. Besides, the IC50 in [7] came to 6 nM; in assay [9], 1 nM.

Consider `CCn1nccc1-n1c(=O)n(C)c2cnc3ccc(-c4ccc(OC)nc4)cc3c21` [Example 2.6, 1-(2-Ethyl-2H-pyrazol-3-yl)-8-(6-methoxy-pyridin-3-yl)-3-methyl-1,3-dihydro-imidazo[4,5-c]quinolin-2-one], for which the half-inhibitory concentration (IC50) is 146 nM in assay [1]; 788 nM in assay [2]; 219 nM in [3]; 85 nM in assay [4]; 141 nM in assay [5]; 136 nM in assay [6]. Also, the IC50 in [7] worked out at 612 nM; in assay [8], 162 nM.

Regarding `COc1ncc(-c2ccc3ncc4c(c3c2)n(-c2cn(C)nc2C)c(=O)n4C)cc1F` [Example 13, 1-(1,3-Dimethyl-1H-pyrazol-4-yl)-8-(5-fluoro-6-methoxy-pyridin-3-yl)-3-methyl-1,3-dihydro-imidazo[4,5-c]quinolin-2-one], the half-inhibitory concentration (IC50) stood at 12 nM in assay [1]; 87 nM in assay [2]; 15 nM in assay [4]; 25 nM in assay [7]; 63 nM in assay [8]; 10 nM in assay [9].

`Cc1nn(C)cc1-n1c(=O)n(C)c2cnc3ccc(-c4ccc(NCCO)nc4)cc3c21` [Example 21.2]: the half-inhibitory concentration (IC50) was found to be 32 nM in assay [1]; 391 nM in [2]; 602 nM in assay [3]; 18 nM in [4]; 375 nM in assay [5]; 273 nM in assay [6]. Also, the results for the concentration for half-maximal inhibition (IC50) in assay [7] and in [9] were 205 nM and 666 nM, respectively.

With `COc1cc(-c2ccc3ncc4c(c3c2)n(-c2c(C)nn(C)c2C)c(=O)n4C)ccc1O` [Example 31, 8-(4-Hydroxy-3-methoxy-phenyl)-3-methyl-1-(1,3,5-trimethyl-1H-pyrazol-4-yl)-1,3-dihydro-imidazo[4,5-c]quinolin-2-one], the IC50 in assay [1] stood at 29 nM; in assay [2], 118 nM; in assay [3] it was 64 nM; in assay [4] it was 30 nM; in assay [5], 29 nM; in assay [6], 49 nM. For the same molecule, the values for the half-maximal inhibitory concentration (IC50) in assay [7] and in [8] were 67 nM and 177 nM, respectively.

As to `Cc1nn(C)cc1-n1c(=O)n(C)c2cnc3ccc(-c4cc(O)cc(F)c4)cc3c21` [Example 33, 1-(1,3-Dimethyl-1H-pyrazol-4-yl)-8-(3-fluoro-5-hydroxy-phenyl)-3-methyl-1,3-dihydro-imidazo[4,5-c]quinolin-2-one], the IC50 in [1] amounted to 9 nM; in [2], 128 nM; in assay [3], 399 nM; in [4] it was 16 nM; in assay [5], 162 nM; in [6], 214 nM. The values for the concentration for half-maximal inhibition (IC50) in [7] and in [8] were 46 nM and 110 nM, respectively.

With `Cc1nn(C)cc1-n1c(=O)n(C)c2cnc3ccc(-c4cncc(NS(C)(=O)=O)c4)cc3c21` [Example 120, N-{5-[1-(1,3-Dimethyl-1H-pyrazol-4-yl)-3-methyl-2-oxo-2,3-dihydro-1H-imidazo[4,5-c]quinolin-8-yl]-pyridin-3-yl}-methanesulfonamide], the 50% inhibitory concentration (IC50) worked out at 11 nM in [1]; 116 nM in [2]; 10 nM in [4]; 18 nM in [7]; 5 nM in assay [8]; 355 nM in [9].

`COc1ncc(-c2ccc3ncc4c(c3c2)n(-c2cn(C)nc2C)c(=O)n4C)cc1C(=O)O` [Example 124, 5-[1-(1,3-Dimethyl-1H-pyrazol-4-yl)-3-methyl-2-oxo-2,3-dihydro-1H-imidazo[4,5-c]quinolin-8-yl]-2-methoxy-nicotinic acid]: the IC50 was determined as 37 nM in [1]; 118 nM in [2]; 20 nM in assay [4]; 83 nM in assay [7]; 53 nM in assay [8].
